The source of these data is patent publication US20210230203A1, “Amphiphilic Kanamycin Compositions and Methods” (priority 2020, published 2021).

The subject of experiment [1] is Cryptococcus neoformans H99. Description: MIC against fungal strains (Table 1). It counts as cell-based. Particulars: Cryptococcus neoformans H99.
The next experiment concerns E. coli (25922). As to the kind of experiment: MIC against bacterial strains. The format is cell-based.
For a further experiment, the system named is S. aureus (ATCC 25923). Description: MIC against bacterial strains. The format is cell-based.
The subject of experiment [2] is Fusarium graminearum B4-5A. Description: microbe, parasite or virus in culture. The format is cell-based. The note with it: Fusarium graminearum B4-5A.
The test system of a further experiment is Candida albicans 64124. As to the kind of experiment: MIC against fungal strains (Table 1). It counts as cell-based.
In a further experiment the test system is Rhodotorula pilimanae. Description: MIC against fungal strains (Table 1). It counts as cell-based.
Another experiment concerns Candida albicans MYA2876. As to the kind of experiment: MIC against fungal strains (Table 1). It counts as cell-based. The note with it: Candida albicans MYA2876.
Experiment [3] concerns S. aureus (ATCC 43300) MRSA. It counts as cell-based.
Experiment [4] has as its system S. aureus (ATCC 33591) MRSA. It counts as cell-based.
In another experiment the test system is Apaphysomyces. Description: MIC against various species, CLSI M27 & M38 (Table 4). The format is cell-based, Apophysomyces. The note with it: 24-72 hours, read-out: Minimum inhibitory concentration 100%.
In a further experiment the test system is Rhizopus arrhizus. Description: MIC against filamentous and dimorphic fungi, CLSI M27 & M38 (Table 3). It counts as cell-based. Particulars: Rhizopus arrhizus, 24-72 hours, read-out: Minimum inhibitory concentration 100%.
The test system of the next experiment is P. variatii. The experiment is described as above. The format is cell-based, Paecilomyces variotii. Particulars: Paecilomyces variotii, P. variatii MYA-3630, RPMI 0.165M MOPS, 24-72 hours, read-out: Minimum inhibitory concentration 100%.
The next experiment concerns Saksenaea sp. Described as above. The format is cell-based, Saksenaea species. Particulars: 24-72 hours, read-out: Minimum inhibitory concentration 100%.
For the next experiment, the system named is P. variotil. Description: MIC against various species, CLSI M27 & M38 (Table 4). The format is cell-based, Paecilomyces variotii. The note with it: Paecilomyces variotii, P. variotil QC, RPMI 0.165M MOPS, 24-72 hours, read-out: Minimum inhibitory concentration 100%.

Converted amounts (≈) assume the structure as drawn. Where two headings read alike, the source gives them in different places.

With `CCCCCCCC(=O)NCC1O[C@H](OC2C(N)CC(N)C(OC3O[C@H](CO)C(O)C(N)[C@H]3O)[C@H]2O)C(O)C(O)[C@@H]1O` (stereo partly drawn) [KI02], the Minimum inhibitory concentration (in [1]; in the experiment on E. coli (25922); with S. aureus (ATCC 25923); in [2]; in the experiment with Candida albicans 64124; in the experiment on Rhodotorula pilimanae) was over 256 µg/mL in each case. The compound further yielded a Minimum inhibitory concentration in the experiment with Candida albicans MYA2876 of over 256 µg/mL.
On to `CCCCCCCCCCCC(=O)NC[C@H]1O[C@H](O[C@H]2[C@H](O)[C@@H](O[C@H]3O[C@H](CO)[C@@H](O)[C@H](N)[C@H]3O)[C@H](N)C[C@@H]2N)[C@H](O)[C@@H](O)[C@@H]1O` [KI04], for which the Minimum inhibitory concentration in experiment [1] was found to be 8 µg/mL (≈ 12 µM); in the experiment with E. coli (25922), 32 µg/mL (≈ 48 µM); in the experiment on S. aureus (ATCC 25923) it was 32 µg/mL (≈ 48 µM); in experiment [2] it was 16 µg/mL (≈ 24 µM); in experiment [3], 128 µg/mL (≈ 192 µM); with Candida albicans 64124, 32 µg/mL (≈ 48 µM). For the same compound, the results for the Minimum inhibitory concentration (in the experiment on Rhodotorula pilimanae; in experiment [4]; in the experiment on Candida albicans MYA2876) were 16 µg/mL (≈ 24 µM), 128 µg/mL (≈ 192 µM) and 32 µg/mL (≈ 48 µM), respectively.
For `CCCCCCCCCCCCCC(=O)NCC1O[C@H](OC2C(N)CC(N)C(OC3O[C@H](CO)C(O)C(N)[C@H]3O)[C@H]2O)C(O)C(O)[C@@H]1O` (stereo partly drawn) [KI05], the Minimum inhibitory concentration in [1] turned out to be 4 µg/mL (≈ 5.76 µM); in the experiment on E. coli (25922) it was 64 µg/mL (≈ 92.1 µM); in the experiment on S. aureus (ATCC 25923), 16 µg/mL (≈ 23 µM); in experiment [2] it was 8 µg/mL (≈ 11.5 µM); in experiment [3], 32 µg/mL (≈ 46.1 µM); with Candida albicans 64124, 16 µg/mL (≈ 23 µM). Also, the Minimum inhibitory concentration in the experiment on Rhodotorula pilimanae came to 4 µg/mL (≈ 5.76 µM); in experiment [4], 32 µg/mL (≈ 46.1 µM); with Candida albicans MYA2876, 16 µg/mL (≈ 23 µM).
Turning to `N[C@@H]1[C@@H](O)[C@@H](O[C@@H]2[C@@H](O)[C@H](O[C@H]3O[C@H](CNC(=O)c4cc(-c5ccccc5)nc5ccccc45)[C@@H](O)[C@H](O)[C@H]3O)[C@@H](N)C[C@H]2N)O[C@H](CO)[C@H]1O` [KI08], the Minimum inhibitory concentration in experiment [1] is 128 µg/mL (≈ 179 µM); in the experiment on E. coli (25922), over 256 µg/mL; in the experiment on S. aureus (ATCC 25923), over 256 µg/mL; in experiment [2] it was over 256 µg/mL; in the experiment on Candida albicans 64124, over 256 µg/mL; in the experiment on Rhodotorula pilimanae it was 256 µg/mL (≈ 358 µM). For the same compound, the Minimum inhibitory concentration in the experiment with Candida albicans MYA2876 was over 256 µg/mL.
With `NC1CC(N)C(O[C@H]2OC(CNC(=O)CCCc3ccc4ccc5cccc6ccc3c4c56)[C@@H](O)C(O)C2O)[C@H](O)C1OC1O[C@H](CO)C(O)C(N)[C@H]1O` (stereo partly drawn) [KI09], the Minimum inhibitory concentration turned out to be 16 µg/mL (≈ 21.2 µM) in [1]; 128 µg/mL (≈ 170 µM) in the experiment on E. coli (25922); 32 µg/mL (≈ 42.4 µM) in the experiment on S. aureus (ATCC 25923); 16 µg/mL (≈ 21.2 µM) in experiment [2]; 32 µg/mL (≈ 42.4 µM) in experiment [3]; 16 µg/mL (≈ 21.2 µM) with Candida albicans 64124. Moreover, the figures for the Minimum inhibitory concentration (with Rhodotorula pilimanae; in [4]; with Candida albicans MYA2876) were 16 µg/mL (≈ 21.2 µM), 128 µg/mL (≈ 170 µM) and 16 µg/mL (≈ 21.2 µM), respectively.
As to `CC[C@@H]([C@H](C)O)n1ncn(-c2ccc(N3CCN(c4ccc(OC[C@@H]5CO[C@@](Cn6cncn6)(c6ccc(F)cc6F)C5)cc4)CC3)cc2)c1=O` [Posaconazole, reference compound], the MIC worked out at 0.125 µg/mL (≈ 0.178 µM) in the experiment on Apaphysomyces (Apaphysomyces APO1, RPMI 0.165M MOPS); 0.125 µg/mL (≈ 0.178 µM) with Apaphysomyces (Apaphysomyces APO2, RPMI 0.165M MOPS); 0.25 µg/mL (≈ 0.357 µM) with Apaphysomyces (Apaphysomyces APO3, RPMI 0.165M MOPS); 1 µg/mL (≈ 1.43 µM) with Rhizopus arrhizus (Rhizopus arrhizus 99-880, RPMI 0.165M MOPS); 0.25 µg/mL (≈ 0.357 µM) with Rhizopus arrhizus (Rhizopus arrhizus 99-892, RPMI 0.165M MOPS); 0.25 µg/mL (≈ 0.357 µM) with Rhizopus arrhizus (Rhizopus arrhizus RA1, RPMI 0.165M MOPS). The MIC in the experiment with P. variatii is at most 0.03 µg/mL; with Saksenaea sp. (Saksenaea sp. SK1, RPMI 0.165M MOPS), at most 0.03 µg/mL; in the experiment with Saksenaea sp. (Saksenaea sp. SK2, RPMI 0.165M MOPS), at most 0.03 µg/mL; with Saksenaea sp. (Saksenaea sp. SK3, RPMI 0.165M MOPS), 0.125 µg/mL (≈ 0.178 µM); with P. variotil, at most 0.03 µg/mL.
With Neomycin [reference compound], the Minimum inhibitory concentration in the experiment on E. coli (25922) and in the experiment with S. aureus (ATCC 25923) was 2 µg/mL throughout.
